Measured values taken from patent US20060275362A1, “Rapidly-dissolving pharmaceutical composition for inhibiting ovulation” (priority 2005, published 2006).

Experiment: Effect of Tween 80 on the solubility of drospirenone in water
Assay type: physicochemical
Settings: Solubility enhancer Tween 80 (Polysorbate 80), drug:enhancer 1:9 parts by weight, agitated approximately 22 hours, versus water alone

- % Increase in the Solubility of Drospirenone as Determined by HPLC: 42%
Compound: C[C@]12CCC(=O)C=C1[C@@H]1C[C@@H]1[C@H]1[C@@H]3[C@@H]4C[C@@H]4[C@@]4(CCC(=O)O4)[C@@]3(C)CC[C@@H]12 [Drospirenone, (2′S, 6R, 7R, 8R, 9S, 10R, 13S, 14S, 15S, 16S)-1,3′, 4′, 6,7,8,9, 10, 11, 12, 13, 14, 15, 16, 20, 21-hexadecahydro-10, 13-dimethylspiro[17H-dicyclopropa[6,7:15,16]cyclopenta[a]phenanthrene-17,2′(5′H)-furan]-3,5′(2H)-dione]
